Assay results taken from ChEMBL document CHEMBL1201862, “PubChem BioAssay data set” (2004).
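Results reflect a 48-hour exposure of cells in 96-well plates to compound at five concentrations. At the GI50, growth is halved.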 Calls of active or inactive are those of the source. No stated cut-off is given here; in the data, active = GI50 up to about 1.1 µM and inactive = higher.

Assays:
Assay in all cases: NCI-60 cell line screen, 48 h
SF-295 = test system: SF-295
OVCAR-8 = test system: OVCAR-8
K562 = test system: K562
SK-MEL-5 = test system: SK-MEL-5
SNB-75 = test system: SNB-75
SW-620 = test system: SW-620
TK-10 = test system: TK-10
HT-29 = test system: HT-29
UACC-62 = test system: UACC-62
LOX IMVI = test system: LOX IMVI
NCI-H23 = test system: NCI-H23
SF-268 = test system: SF-268
CAKI-1 = test system: CAKI-1
NCI-H522 = test system: NCI-H522
UO-31 = test system: UO-31
ACHN = test system: ACHN
SF-539 = test system: SF-539
SR = test system: SR

Measured: GI50

COc1ccc(C(=O)C(CO)Oc2ccccc2OC)cc1OC (centres undefined)
inactive: SF-295 > 100 µM | OVCAR-8 > 100 µM | K562 > 100 µM | SK-MEL-5 > 100 µM | SNB-75 > 100 µM | SW-620 > 100 µM | TK-10 > 100 µM | HT-29 > 100 µM | UACC-62 > 100 µM | LOX IMVI > 100 µM | NCI-H23 > 100 µM | SF-268 > 100 µM | CAKI-1 > 100 µM | NCI-H522 91 µM | UO-31 > 100 µM | ACHN > 100 µM | SF-539 > 100 µM

O=S1(=O)[C@H](c2ccccc2)c2c(-c3ccccc3)sc(-c3ccccc3)c2[C@@H]1c1ccccc1
inactive: SF-295 > 100 µM | OVCAR-8 > 100 µM | K562 > 100 µM | SK-MEL-5 71.9 µM | SNB-75 26.1 µM | SW-620 > 100 µM | TK-10 > 100 µM | HT-29 > 100 µM | UACC-62 > 100 µM | LOX IMVI 58.5 µM | NCI-H23 > 100 µM | SF-268 > 100 µM | CAKI-1 > 100 µM | NCI-H522 13 µM | UO-31 > 100 µM | ACHN > 100 µM | SF-539 > 100 µM

CC(C)(C)c1cc(C#N)c2c(c1)C(=O)OC2(c1ccccc1)c1ccccc1C#N (centres undefined)
inactive: SF-295 78.3 µM | OVCAR-8 > 100 µM | K562 45.4 µM | SNB-75 42.8 µM | SW-620 > 100 µM | TK-10 > 100 µM | HT-29 > 100 µM | UACC-62 > 100 µM | LOX IMVI > 100 µM | NCI-H23 > 100 µM | SF-268 > 100 µM | SR 20.8 µM | CAKI-1 > 100 µM | NCI-H522 12.3 µM | UO-31 32.1 µM | ACHN > 100 µM | SF-539 > 100 µM

O=C(c1ccc(Cl)cc1)c1ccc(OCCSCCCCCCCCCCSCCOc2ccc(C(=O)c3ccc(Cl)cc3)cc2)cc1
inactive: SF-295 91.8 µM | OVCAR-8 > 100 µM | K562 > 100 µM | SK-MEL-5 > 100 µM | SNB-75 > 100 µM | SW-620 > 100 µM | TK-10 > 100 µM | HT-29 > 100 µM | UACC-62 > 100 µM | LOX IMVI > 100 µM | NCI-H23 > 100 µM | SF-268 > 100 µM | CAKI-1 > 100 µM | NCI-H522 > 100 µM | UO-31 > 100 µM | ACHN > 100 µM

O=C(NC1CCCCC1)c1c(O)[nH]c(=S)[nH]c1=O
inactive: SF-295 99.3 µM | OVCAR-8 89.7 µM | SK-MEL-5 > 100 µM | SNB-75 > 100 µM | SW-620 > 100 µM | TK-10 > 100 µM | HT-29 > 100 µM | UACC-62 > 100 µM | LOX IMVI > 100 µM | NCI-H23 > 100 µM | SF-268 > 100 µM | SR > 100 µM | CAKI-1 > 100 µM | NCI-H522 > 100 µM | UO-31 79.3 µM | ACHN 83 µM | SF-539 > 100 µM

COc1cc(C(=O)C/C(CCC(=O)Nc2ccc(Cl)cc2C)=N/NC(=O)C(N)=O)ccc1O
inactive: SF-295 > 100 µM | OVCAR-8 > 100 µM | K562 > 100 µM | SK-MEL-5 > 100 µM | SW-620 > 100 µM | TK-10 > 100 µM | HT-29 > 100 µM | UACC-62 > 100 µM | LOX IMVI > 100 µM | NCI-H23 > 100 µM | SF-268 > 100 µM | CAKI-1 > 100 µM | NCI-H522 > 100 µM | UO-31 43.1 µM | ACHN > 100 µM | SF-539 > 100 µM

Cc1ccc(NC(=O)C(=O)C(C(=O)c2ccc3ccccc3c2)C2OC(=O)c3ccccc32)c(C)c1 (centres undefined)
inactive: OVCAR-8 7.67 µM | K562 10.4 µM | SK-MEL-5 11.1 µM | SNB-75 9.14 µM | SW-620 5.71 µM | TK-10 20.3 µM | HT-29 25.7 µM | UACC-62 4.54 µM | LOX IMVI 10.6 µM | NCI-H23 8.13 µM | SF-268 3.68 µM | CAKI-1 6.68 µM | NCI-H522 12.8 µM | UO-31 13.1 µM | ACHN 23.6 µM | SF-539 4.84 µM

COc1cc(OC(C)=O)cc2c(OC(C)=O)ccc(OC(C)=O)c12
inactive: SF-295 > 100 µM | OVCAR-8 > 100 µM | K562 > 100 µM | SK-MEL-5 > 100 µM | SW-620 > 100 µM | TK-10 > 100 µM | HT-29 > 100 µM | UACC-62 > 100 µM | LOX IMVI > 100 µM | NCI-H23 > 100 µM | SF-268 > 100 µM | SR > 100 µM | CAKI-1 > 100 µM | NCI-H522 > 100 µM | UO-31 > 100 µM | ACHN > 100 µM

O=C(CSC(=S)N1CCCCC1)Nc1nc2c(s1)CCCC2
inactive: SF-295 16.4 µM | OVCAR-8 58.1 µM | SK-MEL-5 18.5 µM | SNB-75 > 100 µM | SW-620 40.7 µM | TK-10 16.4 µM | HT-29 36.3 µM | LOX IMVI 13.8 µM | NCI-H23 36.6 µM | SF-268 20.7 µM | SR 6.4 µM | NCI-H522 29.5 µM | UO-31 33.7 µM | ACHN 50 µM | SF-539 34 µM

CCOc1ccc2c(c1)[n+]([O-])c(-c1ccc([N+](=O)[O-])cc1)c(N)[n+]2[O-]
inactive: SF-295 > 100 µM | OVCAR-8 > 100 µM | K562 > 100 µM | SK-MEL-5 > 100 µM | SNB-75 66.4 µM | SW-620 > 100 µM | HT-29 > 100 µM | NCI-H23 > 100 µM | SF-268 > 100 µM | SR 67 µM | CAKI-1 > 100 µM | NCI-H522 56.4 µM | UO-31 43.1 µM | ACHN > 100 µM | SF-539 > 100 µM

COc1ccc(-c2oc(/C=N/NC(N)=S)c([N+](=O)[O-])c2-c2ccc(OC)c(OC)c2)cc1OC
inactive: SF-295 20.7 µM | OVCAR-8 23.9 µM | K562 > 10 µM | SNB-75 18 µM | SW-620 33.1 µM | TK-10 34 µM | HT-29 23.1 µM | UACC-62 20.1 µM | LOX IMVI 15.9 µM | NCI-H23 32 µM | SF-268 16.6 µM | CAKI-1 32.1 µM | NCI-H522 23.6 µM | ACHN 18.5 µM | SF-539 25.4 µM

COC(=O)CC1CCN(C#N)CC1CC[N+](=O)[O-] (centres undefined)
inactive: OVCAR-8 > 100 µM | K562 > 100 µM | SK-MEL-5 > 100 µM | SNB-75 > 100 µM | SW-620 > 100 µM | TK-10 > 100 µM | UACC-62 > 100 µM | SF-268 > 100 µM | SR > 100 µM | CAKI-1 > 100 µM | NCI-H522 > 100 µM | UO-31 > 100 µM | ACHN > 100 µM | SF-539 > 100 µM

CCOC(=O)C(=O)Nc1c(C)cccc1C(C)(C)C
inactive: SF-295 > 100 µM | OVCAR-8 > 100 µM | K562 > 100 µM | SK-MEL-5 > 100 µM | SNB-75 49.1 µM | SW-620 > 100 µM | TK-10 > 100 µM | HT-29 > 100 µM | UACC-62 > 100 µM | LOX IMVI > 100 µM | NCI-H23 > 100 µM | SF-268 > 100 µM | CAKI-1 > 100 µM | NCI-H522 > 100 µM | UO-31 > 100 µM | ACHN > 100 µM | SF-539 > 100 µM

COc1cc(Oc2c(O)c(C)c(OC)c(C(C)=O)c2O)c(C(C)=O)c(O)c1C
inactive: SF-295 > 100 µM | OVCAR-8 51.6 µM | SK-MEL-5 35.2 µM | SNB-75 > 100 µM | SW-620 57.3 µM | TK-10 49.4 µM | HT-29 71.8 µM | UACC-62 40.5 µM | LOX IMVI 57.3 µM | NCI-H23 34.4 µM | SF-268 66.4 µM | SR > 100 µM | CAKI-1 60.3 µM | NCI-H522 12.9 µM | UO-31 43.1 µM | ACHN 46.5 µM | SF-539 62.2 µM

O=Cc1c(O)c(C(=O)Nc2ccc3[nH]c(=O)[nH]c3c2)cc2ccccc12
inactive: SF-295 > 100 µM | OVCAR-8 > 100 µM | K562 > 100 µM | SK-MEL-5 > 100 µM | SNB-75 > 100 µM | SW-620 > 100 µM | TK-10 > 100 µM | HT-29 > 100 µM | UACC-62 > 100 µM | LOX IMVI > 100 µM | NCI-H23 > 100 µM | SF-268 > 100 µM | CAKI-1 > 100 µM | NCI-H522 > 100 µM | UO-31 > 100 µM | ACHN > 100 µM | SF-539 > 100 µM

COc1cc(C(=O)C/C(CCCC(=O)Nc2ccccc2[N+](=O)[O-])=N/NC(=O)c2cc3ccccc3cc2O)ccc1O
inactive: SF-295 44.4 µM | OVCAR-8 26.8 µM | K562 20.2 µM | SK-MEL-5 34.4 µM | SNB-75 > 91.2 µM | SW-620 46.5 µM | TK-10 52.5 µM | HT-29 41.9 µM | UACC-62 17.6 µM | LOX IMVI 23.9 µM | NCI-H23 41.4 µM | SF-268 23.8 µM | CAKI-1 > 68.9 µM | NCI-H522 36.6 µM | UO-31 13.9 µM | ACHN 28.9 µM | SF-539 37.9 µM
